Eight molecules from patent US3962443A, “Antibacterial pharmaceutical compositions and processes for preparation thereof” (Dainippon Pharmaceutical Co., Ltd., priority 1972, dated 1976) can be followed below.

Assay [1] deals with Escherichia coli K-12. The assay is described as follows: In vitro antibacterial activity, MIC by serial dilution. The format is cell-based. The protocol:
(§1) The minimum inhibitory concentration (MIC) was determined by the well
(§2) known serial dilution method.
(§3) Experimental conditions:?
(§4) Medium: nutrient broth, pH 7.0 (5 ml/tube)
(§5) Inoculum: 1 drop of 1 : 10^5 dilution of an overnight broth culture
(§6) Incubation temperature and time: 37°C for 48 hours

For assay [2], the system named is Staphylococcus aureus Terajima. The description is as above. The format is cell-based. The note with it: nutrient broth pH 7.0, 37°C, 48 hours. The protocol:
as §1, §2, §3, §4, §5, §6

Assay [3] relates to Pseudomonas aeruginosa Tsuchijima. The assay is described as above. Type of assay: cell-based. The note with it: nutrient broth pH 7.0, 37°C, 48 hours. The protocol: as §1, §2, §3, §4, §5, §6
The subject of assay [4] is Pseudomonas aeruginosa No. 12. Put plainly: In vivo efficacy against systemic infection with Pseudomonas aeruginosa in mice. The arrangement: species or system mice (ddY-S). The note with it: NO.12, 168 h, 7 days; for responders at 50 mg/kg / responders at 200 mg/kg / responders at 25 mg/kg / responders at 100 mg/kg: read-out: number of the survival/the total number (converted); for ED50: twice, about 5 minutes and 6 hours after infection. Here is the method:
(§7) In the Tables II to IV, the ED50 and ID50 values were calculated in accordance with the Behrens-Kaerber method [Arch. Exp. Path. Pharm., 162, 480 (1931)]. The compound numbers are those described in the Examples and compounds PA and AT-616 are as follows:
(§8) total number. 0/8 means that all of 8 mice died. 8/8 means that all 8 mic
(§9) Mice: male mice (ddY-S) weighing 20 g approximately

In assay [5] the test system is Salmonella typhimurium S-9. Put plainly: In vivo efficacy against systemic infection with Salmonella typhimurium in mice. The arrangement: species or system mice (ddY-S). The note with it: for ED50: Salmonella enterica, TYPHIMURIUM, 336 h, twice a day for 4 days, 14 days observation; for number of the survived/the total number: 14 days. The protocol: as §7
The numerical figures in the table show the number of the survived/the
as §8
Experimental conditions.
Organism: Salmonella typhimurium S-9
as §9
Infection: Intraperitoneal infection with 50 to 100 LD50 of a
bacterial suspension in nutrient broth (about 10^5 cells/mouse)
Medication: twice a day for 4 days from the day of infection.
Drug: an alkaline solution for parenteral administration and suspension i
0.2% CMC for oral administration
i.e.: intraperitoneal administration
p.o.: oral administration

The mark [6] stands for this setting: K12, Escherichia coli K-12, nutrient broth pH 7.0, 37°C, 48 hours, read-out: MIC.

Converted amounts (≈) assume the structure as drawn. Where two headings read alike, the source gives them in different places.

As to `CCCn1cc(C(=O)O)c(=O)c2cnc(N3CCNCC3)nc21` [Compound 2, 5,8-Dihydro-2-(1-piperazinyl)-8-n-propyl-5-oxopyrido[2,3-d]pyrimidine-6-carboxylic acid], the MIC – broadly, the lowest concentration that inhibits growth of the organism – was 3 µg/mL (≈ 9.45 µM) in assay [1] (Escherichia coli, K12, 48 h, pH 7); 100 µg/mL (≈ 315 µM) in assay [2]; 30 µg/mL (≈ 94.5 µM) in assay [3]. Besides, the responders at 50 mg/kg in assay [4] (ip) was 100%. The ED50 (usually the dose at which the effect has come halfway, by size or by number of responders) is 35.4 mg/kg in assay [4] (ip) and less than 200 mg/kg in assay [4] (po). Further, the responders at 200 mg/kg in assay [4] (po) is 62.5%.

For `CCn1cc(C(=O)O)c(=O)c2cnc(N3CCN(CC(C)O)CC3)nc21` (stereo not drawn) [Compound 4, 5,8-Dihydro-8-ethyl-2-[4-(2-hydroxy-n-propyl)-1-piperazinyl]-5-oxopyrido[2,3-d]pyrimidine-6-carboxylic acid], the figures for the MIC in assay [1] (setting [6]), in assay [2] and in assay [3] were 3 µg/mL (≈ 8.3 µM), 30 µg/mL (≈ 83 µM) and 100 µg/mL (≈ 277 µM), respectively. In addition, the ED50 in assay [5] (ip) and in assay [5] (po) was less than 35.4 mg/kg each time. The “number of the survived/the total number” value is on record as 8/8 in assay [5] (ip, 50 mg/kg) and 8/8 in assay [5] (po, 50 mg/kg).

With `CCn1cc(C(=O)O)c(=O)c2cnc(N3CCN(Cc4ccc(OC)cc4)CC3)nc21` [Compound 17], the values for the MIC in assay [1] (setting [6]), in assay [2] and in assay [3] were 3 µg/mL (≈ 7.08 µM), 10 µg/mL (≈ 23.6 µM) and 100 µg/mL (≈ 236 µM), respectively.

Consider `C#CCN1CCN(c2ncc3c(=O)c(C(=O)O)cn(CC)c3n2)CC1` [Compound 38], for which the MIC is 3 µg/mL (≈ 8.79 µM) in assay [1] (setting [6]), 10 µg/mL (≈ 29.3 µM) in assay [2] and greater than 100 µg/mL in assay [3]. In assay [5] (po), this molecule displayed an ED50 of 21 mg/kg. Moreover, the “number of the survived/the total number” value is reported as 0/8 in assay [5] (po, 12.5 mg/kg); 6/8 in assay [5] (po, 25 mg/kg); 8/8 in assay [5] (po, 50 mg/kg).

On to `C=CCn1cc(C(=O)O)c(=O)c2cnc(N3CCNCC3)nc21` [Compound 50], for which, in assay [1] (setting [6]), the minimal inhibitory concentration (MIC) is 10 µg/mL (≈ 31.7 µM). Further, in assay [2], the MIC was 100 µg/mL (≈ 317 µM). In assay [3], this molecule displayed a minimum inhibitory concentration (MIC) of 30 µg/mL (≈ 95.1 µM). For the same molecule, in assay [4] (ip), the responders at 25 mg/kg is 12.5%, the responders at 50 mg/kg is 87.5%, the responders at 100 mg/kg was 100% and the ED50 turned out to be 35 mg/kg.

On to `C=Cn1cc(C(=O)O)c(=O)c2cnc(N3CCNCC3)nc21.Cl` [Compound 54, 5,8-Dihydro-2-(1-piperazinyl)-8-vinyl-5-oxopyrido[2,3-d] pyrimidine-6-carboxylic acid hydrochloride], for which the values for the MIC in assay [1] (setting [6]), in assay [2] and in assay [3] were 3 µg/mL, greater than 100 µg/mL and 3 µg/mL, respectively. The molecule also returned a median effective dose (ED50) in assay [5] (po) of 17.7 mg/kg. Moreover, the “number of the survived/the total number” value was 2/8 in assay [5] (po, 12.5 mg/kg); 6/8 in assay [5] (po, 25 mg/kg); 8/8 in assay [5] (po, 50 mg/kg).

Consider `Cl.O=C(O)c1cn(CCCl)c2nc(N3CCNCC3)ncc2c1=O` [Compound 63, 8-(2-chloroethyl)-5,8-dihydro-2-(1-piperazinyl)-5-oxopyrido[2,3-d]pyrimidine-6-carboxylic acid hydrochloride], for which, in assay [1] (setting [6]), the MIC amounted to 3 µg/mL. This molecule also gave an MIC in assay [2] of 30 µg/mL. This molecule returned an MIC in assay [3] of 30 µg/mL. In assay [4] (ip), the responders at 25 mg/kg was 100%, the responders at 50 mg/kg was 100% and the ED50 is less than 17.7 mg/kg.

For `CCn1cc(C(=O)O)c(=O)c2cnc(N3CCC(O)C3)nc21` (stereo not drawn) [Compound AT-616, reference compound], the MIC in assay [1] (setting [6]) was 1 µg/mL (≈ 3.29 µM); in assay [2] it was 30 µg/mL (≈ 98.6 µM); in assay [3] it was 100 µg/mL (≈ 329 µM). Further, in assay [4] (ip), the responders at 100 mg/kg is 37.5%. Further, the ED50 in assay [4] (ip) is greater than 100 mg/kg; in assay [4] (po), greater than 200 mg/kg. For the same molecule, the responders at 200 mg/kg in assay [4] (po) was 12.5%.
